Experimental data: patent US6432426B1, “Non-staining topical iodine composition and method” (Symbollon Corporation, priority 1998, dated 2002)
Values joined by “and” are separate entries in the source; they are usually repeats but may differ in a detail not shown here. Identical values can stand only once.

Tests used:
[1] = Sub dermal penetration of iodine measured by iodine analysis of 24 hour urine; type: in vivo, human; settings: 300 ppm molecular iodine applied to skin 4 times over six hours; lines = Subjects 1-3 (prior: 95, 114, 106); listed as I2
Method: 11. The 300 ppm samples of molecular iodine described in Example 1 was used to confirm that molecular iodine will penetrate into skin and permeate into the skin to provide sub dermal tissue penetration.
Application of the iodine solution onto skin was performed as described in Example 1 above with two exceptions: (1) the contacted area was flushed with water for 15 seconds immediately after following contact between the iodine solution and skin and (2) the sample was applied to the skin once every 2 hours over a six hour time period (4 applications).
Twenty-four hour urine samples were collected on three subjects for the day immediately prior to the experiment. […] The urine samples were analyzed to determine their total iodine content. Urinary concentrations of total iodide were measured by utilizing the reduction-oxidation reaction between ceric ioni and arsenite ion catalyzed by iodide. […] Arsenious acid was added, the samples were transferred to an autoanalyzer, ceric ammonium sulfate was added “on line” and the optical transmission was measured spectrophometrically at 420 nm. […] If the yellow color fades to colorless (clear) within 1.5 minutes, the iodine content is too high to be measured. […] The % transmission was recorded and the concentration of iodine in each sample was determined by comparison to the standards.

Candida albicans = test: Residual biocidal effect of skin associated iodine, repeated experiment; type: in vivo; settings: saturated molecular iodine solution (320 ppm)
Salmonella typhimurium = test: as above; type: in vivo; settings: saturated molecular iodine solution (320 ppm)
Human Skin = test: Diffusion of iodine from skin post application (DPD absorbance at 553 nm); type: in vivo; settings: average of three subjects
Method: 2. Three samples from Example 1 were used to confirm that molecular iodine will penetrate into skin and remain in the skin for a prolonged time period.
Application of the iodine solution onto skin was performed as described in Example 1 above with the exception that the contacted area was flushed with water for 15 seconds immediately after following contact between the iodine solution and skin. The method of Goftardi (J. Hosp. Infect., 1995, Vol 29, pages 9-18) were used to measure the amount of molecular iodine coming out of the skin. Briefly, 1 mL of a diethyl-p-phenylenediamine (DPD) solution was placed concentrically onto the exposed area of skin and left there for 30 seconds. This solution was then transferred to a 1 cm cuvette and the absorbance was read at 553 nm. Control values were obtained by contacting the DPD solution to an unexposed area on the forearm of each subject. Control values were subtracted from the experimental measurements. Iodine solutions containing 50 ppm, 150 ppm and 300 ppm of molecular iodine were used for this example. Two measurements were made (one measurement of each forearm) at each iodine concentration on all three subjects.

Streptococcus agalactica = test: Residual biocidal effect of skin associated iodine, repeated experiment; type: in vivo; settings: saturated molecular iodine solution (320 ppm)

For II [Molecular Iodine, molecular iodine], the “24 Hour Urine iodine, Post I2 Application” value [1] was 647 ug iodine and 846 ug iodine and 741 ug iodine, the “Residual biocidal efficacy on skin” value (Candida albicans) was “Efficacy was also demonstrated” and the “Residual biocidal efficacy on skin” value (Salmonella typhimurium) was “Efficacy was also demonstrated”. For the same compound, the “Mean absorbance (DPD, 553 nm), iodine diffusing from skin” value (“Mean absorbance (DPD, 553 nm)” for short) (Human Skin; 50 ppm I2, 3 minutes after application) was 0.06, the “Mean absorbance (DPD, 553 nm)” value (Human Skin; 50 ppm I2, 6 minutes after application) was 0.17 and the “Mean absorbance (DPD, 553 nm)” value (Human Skin; 50 ppm I2, 20 minutes after application) was 0.19. The “Mean absorbance (DPD, 553 nm)” value (Human Skin; 50 ppm I2, 60 minutes after application) was 0.18, the “Mean absorbance (DPD, 553 nm)” value (Human Skin; 50 ppm I2, 90 minutes after application) was 0.13 and the “Mean absorbance (DPD, 553 nm)” value (Human Skin; 50 ppm I2, 120 minutes after application) was 0.08. For the same compound, the “Mean absorbance (DPD, 553 nm)” value (Human Skin; 50 ppm I2, 240 minutes after application) was 0.06, the “Mean absorbance (DPD, 553 nm)” value (Human Skin; 50 ppm I2, 660 minutes after application) was 0.02 and the “Mean absorbance (DPD, 553 nm)” value (Human Skin; 150 ppm I2, 3 minutes after application) was 0.32. For the same compound, the “Mean absorbance (DPD, 553 nm)” value (Human Skin; 150 ppm I2, 6 minutes after application) was 0.31, the “Mean absorbance (DPD, 553 nm)” value (Human Skin; 150 ppm I2, 20 minutes after application) was 0.48 and the “Mean absorbance (DPD, 553 nm)” value (Human Skin; 150 ppm I2, 60 minutes after application) was 0.53. The “Mean absorbance (DPD, 553 nm)” value (Human Skin; 150 ppm I2, 90 minutes after application) was 0.50, the “Mean absorbance (DPD, 553 nm)” value (Human Skin; 150 ppm I2, 120 minutes after application) was 0.46 and the “Mean absorbance (DPD, 553 nm)” value (Human Skin; 150 ppm I2, 240 minutes after application) was 0.36. For the same compound, the “Mean absorbance (DPD, 553 nm)” value (Human Skin; 150 ppm I2, 660 minutes after application) was 0.20, the “Mean absorbance (DPD, 553 nm)” value (Human Skin; 300 ppm I2, 3 minutes after application) was 0.78 and the “Mean absorbance (DPD, 553 nm)” value (Human Skin; 300 ppm I2, 6 minutes after application) was 0.65. For the same compound, the “Mean absorbance (DPD, 553 nm)” value (Human Skin; 300 ppm I2, 20 minutes after application) was 1.11, the “Mean absorbance (DPD, 553 nm)” value (Human Skin; 300 ppm I2, 60 minutes after application) was 0.93 and the “Mean absorbance (DPD, 553 nm)” value (Human Skin; 300 ppm I2, 90 minutes after application) was 0.77. For the same compound, the “Mean absorbance (DPD, 553 nm)” value (Human Skin; 300 ppm I2, 120 minutes after application) was 0.64, the “Mean absorbance (DPD, 553 nm)” value (Human Skin; 300 ppm I2, 240 minutes after application) was 0.57 and the “Mean absorbance (DPD, 553 nm)” value (Human Skin; 300 ppm I2, 660 minutes after application) was 0.40. For the same compound, the “Residual biocidal efficacy on skin” value (Streptococcus agalactica) was “Efficacy was also demonstrated”.
